Data on three compounds can be found in ChEMBL document CHEMBL4321782, “Gasdermin D (GSDMD) as a new target for the treatment of infection” (Medchemcomm, 2019).

Residues, ends and D or L forms follow the SMILES beside them. *: point of attachment. Cbz = O=C(OCc1ccccc1)*; CH2F = FC*

Broadly, the inhibition is how much of the control response was suppressed.

For test [1], the target named is T1, Gasdermin-D (Homo sapiens) (UniProt P57764).
T1 sequence (whole entry): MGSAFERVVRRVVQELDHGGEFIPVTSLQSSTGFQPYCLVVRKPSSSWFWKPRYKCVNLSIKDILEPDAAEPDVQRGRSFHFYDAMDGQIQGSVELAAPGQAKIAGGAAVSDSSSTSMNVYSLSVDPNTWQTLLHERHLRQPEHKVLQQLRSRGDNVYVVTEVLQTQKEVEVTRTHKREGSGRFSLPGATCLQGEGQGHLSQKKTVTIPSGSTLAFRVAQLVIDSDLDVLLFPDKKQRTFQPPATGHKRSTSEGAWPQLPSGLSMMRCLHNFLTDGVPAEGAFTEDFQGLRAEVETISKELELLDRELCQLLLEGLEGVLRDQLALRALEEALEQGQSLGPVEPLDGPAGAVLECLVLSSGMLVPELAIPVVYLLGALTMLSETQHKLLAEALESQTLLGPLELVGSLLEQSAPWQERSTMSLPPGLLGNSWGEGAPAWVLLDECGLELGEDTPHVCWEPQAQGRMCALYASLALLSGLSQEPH
Briefly: Inhibition of GSDMD in LPS-induced human monocyte/macrophages assessed as inhibition of pyroptosis by fluorogenic liposome leakage assay. The note with it: concentration not given here.

For test [2], the target named is T2, Gasdermin-D (Mus musculus) (UniProt Q9D8T2).
T2 sequence (whole entry): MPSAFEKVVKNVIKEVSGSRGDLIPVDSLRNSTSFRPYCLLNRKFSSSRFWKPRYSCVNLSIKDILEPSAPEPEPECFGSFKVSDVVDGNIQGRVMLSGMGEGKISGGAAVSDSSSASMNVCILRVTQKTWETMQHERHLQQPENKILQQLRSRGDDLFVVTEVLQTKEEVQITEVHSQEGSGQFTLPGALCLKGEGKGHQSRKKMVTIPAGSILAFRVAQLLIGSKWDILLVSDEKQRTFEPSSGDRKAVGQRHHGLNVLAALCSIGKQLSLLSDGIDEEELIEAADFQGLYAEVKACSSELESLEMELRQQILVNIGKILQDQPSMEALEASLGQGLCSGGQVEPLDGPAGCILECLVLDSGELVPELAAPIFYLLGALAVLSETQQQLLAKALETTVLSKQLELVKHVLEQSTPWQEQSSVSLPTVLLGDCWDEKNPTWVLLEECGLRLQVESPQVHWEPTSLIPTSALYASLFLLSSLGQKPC
Briefly: Inhibition of GSDMD in LPS-induced mouse monocyte/macrophages assessed as inhibition of pyroptosis by fluorogenic liposome leakage assay. The settings on record: concentration not given here.

Test [3] addresses T1, Gasdermin-D (Homo sapiens). Briefly: Inhibition of human GSDMD expressed in HEK293 cells assessed as inhibition of GSDMD -induced lethality. Format: cell-based.
For test [4], the target named is T2, Gasdermin-D (Mus musculus). Description: Inhibition of mouse GSDMD expressed in HEK293 cells assessed as inhibition of GSDMD -induced lethality. The format is cell-based.

As to `CC(C)[C@H](NC(=O)OCc1ccccc1)C(=O)N[C@@H](C)C(=O)N[C@@H](CC(=O)O)C(=O)CF` (Cbz-Val-Ala-Asp-CH2F), the inhibition in test [1] and in test [2] was above 50% in each case.

On to `Cc1ccc(S(=O)(=O)/C=C/C#N)cc1`, for which the inhibition in test [1] and in test [2] was above 50% in each case.

On to `COc1ccccc1-c1cc2n(n1)Cc1ccc(NC(C)=O)cc1OC2`, for which the results for the INH in test [3] and in test [4] were 1 µM and 5 µM, respectively.
